# Measured values published in patent US7842838B2, “Pyrro[1,2-b]pyridazinone intermediates” (Anadys Pharmaceuticals, Inc., priority 2006, dated 2010).
# Like-named read-outs stand apart in the source and are kept apart here.
# Biological target: NS5B polymerase (Hepatitis C virus genotype 1b, UniProt P26663)
# Assay: HCV NS5B polymerase inhibition assay (streptavidin-coated FlashPlate, [α-33P]GTP incorporation)
# Type: biochemical
# Procedure: Compounds were tested for HCV polymerase inhibition. Assays were performed in a 96-well streptavidin-coated FlashPlate using 20 nM enzyme, 0.5 μCi of [α-^33P]GTP, 0.6 μM GTP, and 250 nM 5′biotinylated oligo (rG13)/poly rC in 20 mM Tris-HCl, pH 7.5, 5 mM MgCl2, 5 mM dithiothreitol, […] bovine serum albumin, and 100 U/mL RNAse inhibitor. The reaction was stopped by aspiration after 75 min at 28° C. and the plate was washed several times. After washing and drying the plate, incorporated radioactivity was counted using a Microbeta scintillation counter. IC50 values were calculated relative to the uninhibited control and inhibition data were fitted to a 4-parameter IC50 equation.
# [1] = 20 nM enzyme, 75 min at 28° C., read-out: NS5B Polymerase IC50
# NS5B polymerase, sequence (P26663 2420-3010): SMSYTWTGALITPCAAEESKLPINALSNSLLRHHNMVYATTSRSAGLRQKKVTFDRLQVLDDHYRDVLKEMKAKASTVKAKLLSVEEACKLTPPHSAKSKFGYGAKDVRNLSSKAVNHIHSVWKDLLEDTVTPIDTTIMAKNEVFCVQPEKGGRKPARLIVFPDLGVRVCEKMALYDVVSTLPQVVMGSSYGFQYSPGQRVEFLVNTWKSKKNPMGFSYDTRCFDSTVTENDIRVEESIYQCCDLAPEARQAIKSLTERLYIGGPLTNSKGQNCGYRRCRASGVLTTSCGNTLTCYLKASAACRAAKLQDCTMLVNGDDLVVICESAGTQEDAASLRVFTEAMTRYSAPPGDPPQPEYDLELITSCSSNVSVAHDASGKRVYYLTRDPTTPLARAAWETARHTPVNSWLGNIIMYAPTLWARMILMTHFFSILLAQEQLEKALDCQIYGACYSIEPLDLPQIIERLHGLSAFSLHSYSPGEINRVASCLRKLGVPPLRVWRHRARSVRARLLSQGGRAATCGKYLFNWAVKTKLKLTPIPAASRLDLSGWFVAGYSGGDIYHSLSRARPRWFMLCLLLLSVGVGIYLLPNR
SMILES,IC50 [1],IC50
"CC(C)CCn1c(=O)c(C2=NS(=O)(=O)c3ccccc3N2)c(O)c2cccn21 [Example 1, 3-(1,1-Dioxo-1,4-dihydro-1λ^6-benzo[1,2,4]thiadiazin-3-yl)-4-hydroxy-1-(3-methyl-butyl)-pyrrolo[1,2-b]pyridazin-2-one]",100 to 3000 nM,
"COc1ccc2c(c1)S(=O)(=O)N=C(c1c(O)c3cccn3n(CCC(C)C)c1=O)N2 [Example 2, 4-Hydroxy-3-(7-methoxy-1,1-dioxo-1,4-dihydro-1λ^6-benzo[1,2,4]thiadiazin-3-yl)-1-(3-methyl-butyl)-pyrrolo[1,2-b]pyridazin-2-one]",100 to 3000 nM,
"CC(C)CCn1c(=O)c(C2=Nc3ccc(NS(C)(=O)=O)cc3S(=O)(=O)N2)c(O)c2cccn21 [Example 3, N-{3-[4-Hydroxy-1-(3-methyl-butyl)-2-oxo-1,2-dihydro-pyrrolo[1,2-b]pyridazin-3-yl]-1,1-dioxo-1,4-dihydro-1λ^6-benzo[1,2,4]thiadiazin-7-yl}-methanesulfonamide]",,< 100 nM
"CC(C)(C)CCn1c(=O)c(C2=NS(=O)(=O)c3cc(NS(C)(=O)=O)ccc3N2)c(O)c2cccn21 [Example 4, N-{3-[1-(3,3-Dimethyl-butyl)-4-hydroxy-2-oxo-1,2-dihydro-pyrrolo[1,2-b]pyridazin-3-yl]-1,1-dioxo-1,4-dihydro-1λ^6-benzo[1,2,4]thiadiazin-7-yl}-methanesulfonamide]",< 100 nM,
"CN(c1ccc2c(c1)S(=O)(=O)N=C(c1c(O)c3cccn3n(CCC(C)(C)C)c1=O)N2)S(C)(=O)=O [Example 5, N-{3-[1-(3,3-Dimethyl-butyl)-4-hydroxy-2-oxo-1,2-dihydro-pyrrolo[1,2-b]pyridazin-3-yl]-1,1-dioxo-1,4-dihydro-1λ^6-benzo[1,2,4]thiadiazin-7-yl}-N-methyl-methanesulfonamide]",< 100 nM,
"CC(C)CCn1c(=O)c(C2=NS(=O)(=O)c3cc(N(C)S(C)(=O)=O)ccc3N2)c(O)c2cccn21 [Example 6, N-{3-[4-Hydroxy-1-(3-methyl-butyl)-2-oxo-1,2-dihydro-pyrrolo[1,2-b]pyridazin-3-yl]-1,1-dioxo-1,4-dihydro-1λ^6-benzo[1,2,4]thiadiazin-7-yl}-N-methyl-methanesulfonamide]",100 to 3000 nM,
"CC(C)CCn1c(=O)c(C2=CS(=O)(=O)c3cc(N(C)S(C)(=O)=O)ccc3N2)c(O)c2cccn21 [Example 7, N-{3-[4-Hydroxy-1-(3-methyl-butyl)-2-oxo-1,2-dihydro-pyrrolo[1,2-b]pyridazin-3-yl]-1,1-dioxo-1,4-dihydro-1λ^6-benzo[1,4]thiazin-7-yl}-N-methyl-methanesulfonamide]",100 to 3000 nM,
"CC(C)(C)CCn1c(=O)c(C2=CS(=O)(=O)c3cc(NS(C)(=O)=O)ccc3N2)c(O)c2cccn21 [Example 8, N-{3-[1-(3,3-Dimethyl-butyl)-4-hydroxy-2-oxo-1,2-dihydro-pyrrolo[1,2-b]pyridazin-3-yl]-1,1-dioxo-1,4-dihydro-1λ^6-benzo[1,4]thiazin-7-yl}-methanesulfonamide]",< 100 nM,
"CS(=O)(=O)Nc1ccc2c(c1)S(=O)(=O)N=C(c1c(O)c3cccn3n(Cc3ccc(F)cc3)c1=O)N2 [Example 9, N-{3-[1-(4-Fluoro-benzyl)-4-hydroxy-2-oxo-1,2-dihydro-pyrrolo[1,2-b]pyridazin-3-yl]-1,1-dioxo-1,4-dihydro-1λ^6-benzo[1,2,4]thiadiazin-7-yl}-methanesulfonamide]",< 100 nM,
"CN(c1ccc2c(c1)S(=O)(=O)N=C(c1c(O)c3cccn3n(Cc3ccc(F)cc3)c1=O)N2)S(C)(=O)=O [Example 10, N-{3-[1-(4-Fluoro-benzyl)-4-hydroxy-2-oxo-1,2-dihydro-pyrrolo[1,2-b]pyridazin-3-yl]-1-dioxo-1,4-dihydro-1λ^6-benzo[1,2,4]thiadiazin-7-yl}-N-methyl-methanesulfonamide]",100 to 3000 nM,
"O=c1c(C2=NS(=O)(=O)c3cc(C4CCCS4(=O)=O)ccc3N2)c(O)c2cccn2n1Cc1ccc(F)cc1 (centres unmarked) [Example 11, 3-[7-(1,1-Dioxo-tetrahydro-1λ^6-thiophen-2-yl)-1,1-dioxo-1,4-dihydro-1λ^6-benzo[1,2,4]thiadiazin-3-yl]-1-(4-fluoro-benzyl)-4-hydroxy-pyrrolo[1,2-b]pyridazin-2-one]",100 to 3000 nM,
"O=c1c(C2=NS(=O)(=O)c3ccccc3N2)c(O)c2cccn2n1Cc1ccc(F)cc1 [Example 12, 3-(1,1-Dioxo-1,4-dihydro-1λ^6-benzo[1,2,4]thiadiazin-3-yl)-1-(4-fluoro-benzyl)-4-hydroxy-pyrrolo[1,2-b]pyridazin-2-one]",100 to 3000 nM,
"CC(C)CCn1c(=O)c(C2=NS(=O)(=O)c3cc(NS(=O)(=O)C4CC4)ccc3N2)c(O)c2cccn21 [Example 13, Cyclopropanesulfonic acid {3-[4-hydroxy-1-(3-methyl-butyl)-2-oxo-1,2-dihydro-pyrrolo[1,2-b]pyridazin-3-yl]-1,1-dioxo-1,4-dihydro-1λ^6-benzo[1,2,4]thiadiazin-7-yl}-amide]",100 to 3000 nM,
"CC(C)CCn1c(=O)c(C2=NS(=O)(=O)c3cc(NS(C)(=O)=O)ccc3N2)c(O)c2cc(F)cn21 [Example 14, N-{3-[6-Fluoro-4-hydroxy-1-(3-methyl-butyl)-2-oxo-1,2-dihydro-pyrrolo[1,2-b]pyridazin-3-yl]-1,1-dioxo-1,4-dihydro-1λ^6-benzo[1,2,4]thiadiazin-7-yl}-methanesulfonamide]",< 100 nM,
"CC(C)CCn1c(=O)c(C2=NS(=O)(=O)c3cc(NS(C)(=O)=O)ccc3N2)c(O)c2cc(C#N)cn21 [Example 15, N-{3-[6-Cyano-4-hydroxy-1-(3-methyl-butyl)-2-oxo-1,2-dihydro-pyrrolo[1,2-b]pyridazin-3-yl]-1,1-dioxo-1,4-dihydro-1λ^6-benzo[1,2,4]thiadiazin-7-yl}-methanesulfonamide]",100 to 3000 nM,
"CC(C)CCn1c(=O)c(C2=CS(=O)(=O)c3cc(NS(C)(=O)=O)ccc3N2)c(O)c2cccn21 [Example 16, N-{3-[4-Hydroxy-1-(3-methyl-butyl)-2-oxo-1,2-dihydro-pyrrolo[1,2-b]pyridazin-3-yl]-1,1-dioxo-1,4-dihydro-1λ^6-benzo[1,4]thiazin-7-yl}-methanesulfonamide]",< 100 nM,
"CS(=O)(=O)Nc1ccc2c(c1)S(=O)(=O)N=C(c1c(O)c3cccn3n(Cc3ccc(F)c(Cl)c3)c1=O)N2 [Example 17, N-{3-[1-(3-Chloro-4-fluoro-benzyl)-4-hydroxy-2-oxo-1,2-dihydro-pyrrolo[1,2-b]pyridazin-3-yl]-1,1-dioxo-1,4-dihydro-1λ^6-benzo[1,2,4]thiadiazin-7-yl}-methanesulfonamide]",,< 100 nM
